Data reported in patent US20220274938A1, “5-[(1S)-1-(4-BROMOPHENOXY)ETHYL]-2H-TETRAZOLE DERIVATIVES AND RELATED COMPOUNDS AS CLC-1 ION CHANNEL INHIBITORS FOR TREATING NEUROMUSCULAR DISORDERS” (NMD PHARMA A/S, priority 2019, published 2022).

Tests used:
Format in all cases: cell-based
CIC-1 ion channel = biological target: T1, CIC-1 ion channel (Rattus norvegicus, UniProt P35524); test: Electrophysiological measurement (Gm, three micro-electrodes) of compound inhibition of CIC-1 in rat soleus muscle fibres; conditions: approx. 30° C., four increasing compound concentrations, read-out: EC50 (inhibition of CIC-1 ion channel, reduction of Gm)
T1 construct: CIC-1 channels in native tissue of rat skeletal muscle fibres; from tissue; host or cells: whole soleus muscle of 12-14 week old Wistar rats
T1 sequence (P35524 1-994): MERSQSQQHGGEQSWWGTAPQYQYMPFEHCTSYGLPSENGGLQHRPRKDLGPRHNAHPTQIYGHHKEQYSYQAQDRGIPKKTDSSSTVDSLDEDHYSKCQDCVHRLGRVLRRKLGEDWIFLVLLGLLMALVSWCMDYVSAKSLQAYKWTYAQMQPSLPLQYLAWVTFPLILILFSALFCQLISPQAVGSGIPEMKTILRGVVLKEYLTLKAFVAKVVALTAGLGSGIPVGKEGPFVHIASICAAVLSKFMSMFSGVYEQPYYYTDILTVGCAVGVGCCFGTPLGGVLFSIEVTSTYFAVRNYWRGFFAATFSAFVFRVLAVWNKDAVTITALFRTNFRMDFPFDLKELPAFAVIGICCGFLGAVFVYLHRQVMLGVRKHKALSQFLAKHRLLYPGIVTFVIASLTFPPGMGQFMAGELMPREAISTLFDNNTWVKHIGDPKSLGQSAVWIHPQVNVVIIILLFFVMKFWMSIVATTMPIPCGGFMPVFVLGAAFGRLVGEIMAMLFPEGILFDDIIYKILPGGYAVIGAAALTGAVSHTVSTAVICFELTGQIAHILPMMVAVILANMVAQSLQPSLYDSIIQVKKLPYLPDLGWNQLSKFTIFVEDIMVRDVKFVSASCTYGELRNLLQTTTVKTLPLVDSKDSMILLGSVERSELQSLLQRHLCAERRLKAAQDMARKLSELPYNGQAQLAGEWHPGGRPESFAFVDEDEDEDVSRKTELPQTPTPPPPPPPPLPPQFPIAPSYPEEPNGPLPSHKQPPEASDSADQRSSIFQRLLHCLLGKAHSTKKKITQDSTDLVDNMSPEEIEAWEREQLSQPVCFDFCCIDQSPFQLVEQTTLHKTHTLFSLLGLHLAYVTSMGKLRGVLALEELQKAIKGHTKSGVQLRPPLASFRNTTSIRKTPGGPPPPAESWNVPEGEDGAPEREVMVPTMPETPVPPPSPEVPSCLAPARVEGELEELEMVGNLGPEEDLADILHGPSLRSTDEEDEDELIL
Source text: FIG. 1. […] Please note that the drawing illustrates only the impaled fibre although it is part of an intact muscle that contains many such fibres. All electrodes recorded the membrane potential of the fibre and the two peripheral electrodes were used to inject current (−30 nA, 50 ms). The electrodes were inserted with known inter-electrode distances (X1, X2 and X3). After insertion, current was passed first via the V1 electrode and then via the V3 electrode. The resulting deflections in the membrane voltage were measured by the other electrodes. The steady state deflections in membrane potential were measured and divided by the magnitude of the injected current (−30 nA) to obtain transfer resistances. These were next plotted against inter-electrode distances, and fitted to an exponential function (Panel B), from which Gm could be calculated using linear cable theory. The approach described in panel A and B, was repeated for several muscle fibres in the muscle during exposure at increasing concentrations of compound E-8, with approx. 10 fibres at each concentration. Average Gm at each concentration was plotted as a function of compound concentration in panel C, and fitted to a 4-parameter sigmoidal function from which the EC50 value for the compound was obtained (dashed line)
Apparent CIC-1 affinity was reported by the concentration of compound at which 50% of the compound's full inhibition of CIC-1 was observed (EC50).
CIC-1 Cl^− ion channels generate around 80% of the total membrane conductance (Gm) in resting skeletal muscle fibres of most animals including rat and human (Bretag, A H. Muscle chloride channels. Physiological Reviews, 1987, 67, 618-724). […] CIC-1 inhibition would in such recordings be reflected by a reduction of Gm.
Experimentally, Gm was measured in individual fibres of whole rat soleus muscles using a three micro-electrodes technique described in this example and in full detail elsewhere (Riisager et al., Determination of cable parameters in skeletal muscle fibres during repetitive firing of action potentials. Journal of Physiology, 2014, 592, 4417-4429). Briefly, intact rat soleus muscles were dissected out from 12-14 week old Wistar rats and placed in an experimental chamber that was perfused with a standard Krebs Ringer solution containing 122 mM NaCl, 25 mM NaHCO3, 2.8 mM KCl, 1.2 mM KH2PO4, 1.2 mM MgSO4, 1.3 mM CaCl2, 5.0 mM D-glucose. During experiments, the solution was kept at approx. 30° C. and continuously equilibrated with a mixture of 95% O2 and 5% CO2, pH˜7.4. The experimental chamber was placed in Nikon upright microscope that was used to visualize individual muscle fibres and the three electrodes (glass pipettes filled with 2 M potassium citrate). For Gm measurements, the electrodes were inserted into the same fibre with known inter-electrode distances of 0.35-0.5 mm (V1-V2, X1) and 1.1-1.5 mm (V1-V3, X3) (FIG. 1A). The membrane potential of the impaled muscle fibre was recorded by all electrodes. Two of the electrodes were furthermore used to inject 50 ms current pulses of −30 nA. […] The steady state voltage deflection at each distance was divided by the magnitude of current injected (−30 nA) and the resulting transfer resistances were plotted against inter-electrode distance and the data was fitted to a mono-exponential function from which Gm could be calculated using linear cable theory (FIG. 1B).
To establish a dose response relationship, Gm was first determined in 10 muscle fibres in the absence of compound and then at four increasing compound concentrations with Gm determinations in 5-10 fibres at each concentration. The average Gm values at each concentration were plotted against compound concentration and the data was fitted to sigmoidal function to obtain an EC50 value (FIG. 1C).

human CIC-1 channels = biological target: T2, human CIC-1 channels (Homo sapiens, UniProt P35523); test: Automated patch-clamp on the human isoform of CIC-1 expressed in CHO cells; conditions: compound added to the intracellular solution vs control cell patches, positive shift reflects inhibition
T2 construct: host or cells: CHO (Chinese hamster ovary) cells, cryopreserved, used directly after thawing
Description: The investigatory goal of these experiments was to evaluate how compounds affect the open probability and current amplitude of human CIC-1 channels expressed in CHO cells. Experiments were performed using an automated patch clamp system that allowed high throughput testing of whole cell patches together with both intracellular and extracellular addition of compound.
Automated whole cell patch clamp experiments were performed with the Qpatch 16 system (Sophion Bioscience, Ballerup, Denmark) at room temperature. Data acquisition and analysis were performed in the Qassay software (ver. 5.6, Odense).
To obtain tail currents, the membrane potential was stepped to −100 mV after each test voltage for 300 ms and then relaxed to −30 mV for 2 sec between sweeps (FIG. 3). I/V relationships for whole cell instant and steady state current amplitudes were obtained by plotting average current densities at the beginning and at the end of the 300 ms step against the membrane potential (FIG. 4).
In order to determine the relative overall open probability (Po), the instantaneous tail currents were normalized to the maximal tail current obtained following the most positive voltage step and plotted against the test voltage. Plots of normalized tail currents from each whole cell patch were then fitted to a Boltzmann function allowing determination of half activation voltages (V1/2, FIG. 5).
Osmolality adjusted to ˜320 using sucrose. Intracellular solutions contained: 80 mM CsF, 60 mM CsCl, 5/1 mM KOH/EGTA, 10 mM HEPES, 10 mM NaCl, pH adjusted to 7.2 with NaOH (2 M). Osmolality adjusted to ˜320 mOsm using sucrose.
Cells used in patch clamp experiments were Chinese hamster ovary cells (CHO) constitutively expressing human CIC-1 channels. The amino acid sequence encoded by the cDNA used to create this cell line was identical to the translated sequence for GenBank accession number NM_000083.2. Cells were produced by Charles River (Catalogue CT6175, Cleveland Ohio, USA) in a cryopreserved format. Experiments were performed on the cells directly after thawing (3×10^6 cells used in each experiment).
To evaluate the compound effect on CIC-1, when applied directly to the intracellular side of the cell membrane, the half activation voltage, V1/2, was determined from whole cell patches with compound added to the intracellular solution and then compared to V1/2 determined from control cell patches with only vehicle added to the intracellular solution. Additionally, the effect of extracellular added compound was evaluated by determine V1/2 and steady state current amplitudes before and after exchanging the extracellular solution to contain compound.
The difference in half activation voltage of CIC-1 channels, ΔV1/2, was determined as the difference between the cell patches treated intracellularly with compound and control cells patches and is reported in Table 4 below. A positive shift in ΔV1/2 is reflecting CIC-1 channel inhibition by the tested compound. P-values of <0.05 is considered significant.

[1] = tested on: isolated rat soleus muscles; test: Measurement of force in an in vitro model: isolated rat soleus nerve-muscle preparation with tubocurarine; conditions: Rattus norvegicus, 40 min; 50 μM test compound, after 40 mins of compound exposure; 115 nM tubocurarine for 90 mins; read-out: Point increase (%) of initial force that was restored
Description: FIG. 2. […] Force traces from a representative muscle stimulated to contract in 1) control condition before addition of neuromuscular blocking agent, 2) the force response to stimulation after 90 minutes incubation with Tubocurarine. […] The traces presented in panel A (1, 2, 3), correspond to the dotted lines in panel B, respectively.
Recovery of force is quantified as the percentage of the force prior to tubocurarine that is recovered by the compound.
The current disclosure relates to compounds that inhibit CIC-1 ion channels and increase muscle excitability and thereby improve muscle function in clinical conditions where muscle activation is failing. Such conditions result in loss of contractile function of skeletal muscle, weakness and excessive fatigue. In this series of experiments the compounds were tested for their ability to restore contractile function of isolated rat muscle when the neuromuscular transmission had been compromised akin to neuromuscular disorders.
Experimentally, soleus muscles from 4-5 week old rats were isolated with the motor nerve remaining attached. The nerve-muscle preparations were mounted in experimental setups that enabled electrical stimulation of the motor nerve. Stimulation of the motor nerve led to activation of the muscle fibres and ensuing force production that was recorded. The nerve-muscle preparations were also in these experiments incubated in the standard Krebs Ringer (see example 5) and the solution was heated to 30° C. and continuously equilibrated with a mixture of 95% O2 and 5% CO2, pH˜7.4.
After mounting the nerve-muscle preparation in the experimental setup, the contractile function of the muscle was initially assessed under the control conditions (FIG. 2A). […] The experimental condition mimics the failing neuromuscular transmission in a range of neuromuscular disorders. After addition of tubocurarine the contractile force declined over the next 90 mins to 10-50% of the control force. 50 μM of the test compound was then added and the contractile force recovered despite the continued presence of tubocurarine. To quantify the ability of the compound to restore force the percentage of the initial force that was restored was determined after 40 mins of compound exposure (FIG. 2B) and the point increase is reported in Table 3.

T2 sequence (P35523 whole entry, canonical isoform): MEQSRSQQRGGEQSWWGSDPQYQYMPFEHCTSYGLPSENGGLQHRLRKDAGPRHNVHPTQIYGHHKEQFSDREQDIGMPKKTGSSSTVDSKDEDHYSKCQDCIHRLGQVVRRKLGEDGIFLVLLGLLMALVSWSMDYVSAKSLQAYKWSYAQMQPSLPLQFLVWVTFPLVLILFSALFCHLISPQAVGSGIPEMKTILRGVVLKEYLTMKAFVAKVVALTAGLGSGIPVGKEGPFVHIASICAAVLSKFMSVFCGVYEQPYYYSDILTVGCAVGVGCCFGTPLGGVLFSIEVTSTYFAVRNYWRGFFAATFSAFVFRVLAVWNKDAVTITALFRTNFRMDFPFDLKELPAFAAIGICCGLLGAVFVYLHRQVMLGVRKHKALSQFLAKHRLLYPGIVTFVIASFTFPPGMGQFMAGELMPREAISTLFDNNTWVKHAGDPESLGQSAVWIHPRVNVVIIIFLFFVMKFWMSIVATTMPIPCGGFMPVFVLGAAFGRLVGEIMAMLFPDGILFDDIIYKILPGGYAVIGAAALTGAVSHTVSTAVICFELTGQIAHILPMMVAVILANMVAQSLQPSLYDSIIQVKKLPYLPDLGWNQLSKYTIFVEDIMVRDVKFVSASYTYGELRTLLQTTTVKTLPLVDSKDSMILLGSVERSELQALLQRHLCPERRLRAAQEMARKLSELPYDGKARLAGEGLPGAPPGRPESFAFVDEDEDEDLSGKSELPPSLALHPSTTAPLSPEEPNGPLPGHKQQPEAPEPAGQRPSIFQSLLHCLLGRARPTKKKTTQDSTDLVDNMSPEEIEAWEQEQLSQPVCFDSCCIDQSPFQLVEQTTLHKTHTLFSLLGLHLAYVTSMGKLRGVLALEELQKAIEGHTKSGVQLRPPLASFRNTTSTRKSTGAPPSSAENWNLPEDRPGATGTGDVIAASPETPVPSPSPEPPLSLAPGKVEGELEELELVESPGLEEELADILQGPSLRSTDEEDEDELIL

Row | SMILES | EC50 (CIC-1 ion channel) [µM] | ΔV1/2 (difference in half activation voltage of CIC-1 channels) (human CIC-1 channels) [mV] | activation at 50 µM [1] [%]
1 | C/C(=N\O)NC(=O)[C@@H](Oc1ccc(Br)cc1F)C(C)C [Compound A-4, (2S)-2-(4-bromo-2-fluorophenoxy)-N-[1(hydroxyimino)ethyl]-3-methylbutanamide] | 2.2 | – | –
2 | CC(=NO)NC(=O)[C@H](C)Oc1ccc(Br)cc1 [Compound A-6, (2S)-2-(4-bromophenoxy)-N-[1-(hydroxyimino)ethyl]propanamide] | 2 | – | –
3 | C[C@H](Oc1ccc(Br)cc1Br)C(=O)NC#N [Compound B-2, (2S)-N-cyano-2-(2,4-dibromophenoxy)propanamide] | – | 6.2 | –
4 | CC(=O)NCCON(C(C)=O)C(=O)[C@H](C)Oc1ccc(Cl)cc1 [Compound C-22, (2S)-N-acetyl-2-(4-chlorophenoxy)-N-(2-acetamidoethoxy)propanamide] | 7.8 | – | 22
5 | CONC(=O)[C@H](C)Oc1ccc(Br)cc1F [Compound C-64, (2S)-2-(4-bromo-2-fluorophenoxy)-N-methoxypropanamide] | 3.1 | – | 24
6 | COC(=O)CONC(=O)[C@H](C)Oc1ccc(Cl)cc1 [Compound C-78, methyl 2-{[(2S)-2-(4-chlorophenoxy)propanamido]oxy}acetate] | 3.1 | – | 41
7 | C[C@H](Oc1ccc(Br)cc1-c1ccon1)c1nnn[nH]1 [Compound E-7] | 6 | – | –
8 | C[C@H](Oc1ccc(Cl)cc1)c1nnn[nH]1 [Compound E-15, 5-[(1S)-1-(4-chlorophenoxy)ethyl]-1H-1,2,3,4-tetrazole] | 19.9 | – | –

Second part, led by results:

Row | EC50 (CIC-1 ion channel) [µM] | ΔV1/2 (difference in half activation voltage of CIC-1 channels) (human CIC-1 channels) [mV] | SMILES | activation at 50 µM [1] [%]
9 | 4.6 | – | C[C@H](Oc1ccc(Cl)cc1)C(=O)NOC1CCCC1 [Compound C-70, (2S)-2-(4-chlorophenoxy)-N-(cyclopentyloxy)propanamide] | –
10 | 3.4 | – | C[C@H](Oc1ccc(Cl)cc1)C(=O)NOCC1CC1 [Compound C-74, (2S)-2-(4-chlorophenoxy)-N-(cyclopropylmethoxy)propanamide] | 22
11 | 2 | – | C[C@H](Oc1ccc(Cl)cc1)C(=O)NOCC1CCC1 [Compound C-75, (2S)-2-(4-chlorophenoxy)-N-(cyclobutylmethoxy)propanamide] | 36
12 | 9.7 | – | CCONC(=O)[C@H](C)Oc1ccc(Cl)cc1 [Compound C-82, (2S)-2-(4-chlorophenoxy)-N-ethoxypropanamide] | –
13 | 3.5 | – | CCCONC(=O)[C@H](C)Oc1ccc(Cl)cc1 [Compound C-83, (2S)-2-(4-chlorophenoxy)-N-propoxypropanamide] | –
14 | 11.5 | – | CC(C)ONC(=O)[C@H](C)Oc1ccc(Cl)cc1 [Compound C-84, (2S)-2-(4-chlorophenoxy)-N-(propan-2-yloxy)propanamide] | –
15 | 10.1 | – | CONC(=O)[C@H](C)Oc1ccc(Cl)cc1 [Compound C-85, (2S)-2-(4-chlorophenoxy)-N-methoxypropanamide] | 45
